Data as given in patent US20250092065A1, “2-(INDAZOL-5-YL)-6-(PIPERIDIN-4-YL)-1,7-NAPHTHYRIDINE DERIVATIVES AND RELATED COMPOUNDS AS MODULATORS FOR SPLICING NUCLEIC ACIDS AND FOR THE TREATMENT OF PROLIFERATIVE DISEASES” (REMIX THERAPEUTICS INC., priority 2022, published 2025).
Like-named read-outs stand apart in the source and are kept apart here.

Experiments:
MYB = assay: HiBiT protein abundance assay, MYB (K562 HiBiT knock-in); assay type: cell-based, human; conditions: HiBiT knock-in K562 cells, 24 hours, top dose 10 μM
In short: (§1)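 Luminescence readout: Nano-Glo HiBiT lytic detection after 24 h compound exposure of K562 HiBiT knock-in cells, 10000 cells/well. Dosing 10-pt, 3-fold, top 10 μM final. % response vs untreated parental K562 and DMSO controls; 4PL fit, IC50 = concentration giving 50% protein abundance.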

K562 cells = assay: Cell Titer Glo 2.0 cell viability (toxicity) assay, K562; conditions: 500 cells/well, 72 hours
Target C = assay: HiBiT protein abundance assay, Target C (K562 HiBiT knock-in); assay type: cell-based, human; conditions: HiBiT knock-in K562 cells, 24 hours, top dose 10 μM
In short: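 K562 HiBiT knock-in cells (10000/well) were treated 24 h at 37° C with a 10-point 3-fold dilution series (top 10 μM final, ≤0.25% DMSO). HiBiT luminescence was read after lytic LgBiT detection. Percent response used unmodified K562 and DMSO-treated knock-in controls, and IC50 came from a four-parameter fit at 50% of untreated.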

HTT mRNA = assay: RT-qPCR splicing assay, HTT mRNA canonical (CJ) and alternative (AJ) junction; assay type: cell-based, human; conditions: Homo sapiens; for AC50: HTT alternative junction mRNA, read-out: HTT AJ (increase in AJ mRNA, AC50)
In short: (§2)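 Canonical and alternative-exon junction isoforms were quantified by RT-qPCR in cell lysates, with ΔCt against a housekeeper (GAPDH/GUSB/PPIA), then ΔΔCt vs DMSO, converted to 2^(−ΔΔCt) and percent response. K562 or A673 cells were exposed for 24 h to 11 concentrations (3-fold, top final 10 uM).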

MYB mRNA = assay: RT-qPCR splicing assay, MYB mRNA canonical (CJ) and alternative (AJ) junction; assay type: cell-based, human; conditions: Homo sapiens; for AC50: MYB alternative junction mRNA, read-out: MYB AJ (increase in AJ mRNA, AC50)
In short: as §2

HTT = assay: HiBiT protein abundance assay, HTT (K562 HiBiT knock-in); assay type: cell-based, human; conditions: HiBiT knock-in K562 cells, 24 hours, top dose 10 μM
In short: as §1

SMN2 mRNA = assay: RT-qPCR splicing assay, SMN2 mRNA; assay type: cell-based, human; conditions: Homo sapiens, canonical junction qPCR panel, Table 4; read-out: SMN2 IC50 (decrease in CJ mRNA levels)
In short: as §2

[1] = HTT canonical junction mRNA, RT-qPCR, read-out: HTT CJ (decrease in CJ mRNA levels, IC50)
[2] = canonical junction qPCR panel, Table 4, read-out: HTT IC50 (decrease in CJ mRNA levels)
[3] = MYB canonical junction mRNA, RT-qPCR, read-out: MYB CJ (decrease in CJ mRNA levels, IC50)
[4] = canonical junction qPCR panel, Table 4, read-out: MYB IC50 (decrease in CJ mRNA levels)

SMILES | IC50 (MYB) [nM] | Effect of Exemplary Compounds on Cell Viability, K562 (K562 cells) | IC50 (Target C) [nM] | AC50 (HTT mRNA; RT-qPCR) [nM] | IC50 (HTT mRNA; [1]) [nM] | IC50 (HTT mRNA; [2]) [nM] | AC50 (MYB mRNA; RT-qPCR) [nM] | IC50 (MYB mRNA; [3]) [nM] | IC50 (MYB mRNA; [4]) [nM] | IC50 (HTT) [nM] | IC50 (SMN2 mRNA) [nM]
Cn1cc2cc(-c3ccc4nc(N5CC[C@@H](NC6CC6)C5)ccc4n3)c(O)cc2n1 [Compound 198] | < 100 | B (B represents 100-1000 nM) | < 100 | < 100 | < 100 | < 100 | < 100 | < 100 | < 100 | < 100 | < 100
Cn1cc2nc(-c3ccc4nc(C5CCNCC5)ccc4n3)ccc2n1 [Compound 199] | 100 to 1000 | B (B represents 100-1000 nM) | 100 to 1000 | 100 to 1000 | 100 to 1000 | 100 to 1000 | 100 to 1000 | 100 to 1000 | 100 to 1000 | 100 to 1000 | 100 to 1000
Cn1cc2cc(-c3ccc4nc(C5CCNCC5)ccc4n3)ncc2n1 [Compound 200] | 1000 to 10000 | C (C represents 1000-9999 nM) | 1000 to 10000 | 1000 to 10000 | 1000 to 10000 | 1000 to 10000 | 1000 to 10000 | 1000 to 10000 | 1000 to 10000 | 1000 to 10000 | 1000 to 10000
Cc1cn2cc(-c3ccc4nc(N5CCC(NC(C)(C)C)C5)ccc4n3)cc(C)c2n1 (stereo not shown) [Compound 201] | 100 to 1000 | B (B represents 100-1000 nM) | 100 to 1000 | 100 to 1000 | 100 to 1000 | 100 to 1000 | 100 to 1000 | 100 to 1000 | 100 to 1000 | < 100 | < 100
Cn1cc2cc(-c3ccc4nc(N5CCC(NC(C)(C)C)C5)ccc4n3)c(O)c(F)c2n1 (stereo not shown) [Compound 202] | < 100 | A (A represents <100 nM) | < 100 | < 100 | < 100 | < 100 | < 100 | < 100 | < 100 | < 100 | < 100
Cc1cn2nc(-c3ccc4nc(N5CCC(NC(C)(C)C)C5)ccc4n3)c(O)c2c(C)n1 (stereo not shown) [Compound 203] | < 100 | B (B represents 100-1000 nM) | < 100 | < 100 | < 100 | < 100 | 100 to 1000 | 100 to 1000 | 100 to 1000 | < 100 | < 100
Cn1cc2cc(-c3ccc4nc(C5CCNCC5)ccc4n3)c(C#N)cc2n1 [Compound 204] | 1000 to 10000 | D (D represents greater than 10 μM in K562 cells) | 1000 to 10000 | 1000 to 10000 | 1000 to 10000 | 1000 to 10000 | 1000 to 10000 | 1000 to 10000 | 1000 to 10000 | 1000 to 10000 | 100 to 1000
Cn1cc2nc(-c3ccc4nc(C5CCNCC5)ccc4n3)c(F)cc2n1 [Compound 205] | 1000 to 10000 | C (C represents 1000-9999 nM) | 1000 to 10000 | 1000 to 10000 | 1000 to 10000 | 1000 to 10000 | 1000 to 10000 | 1000 to 10000 | 1000 to 10000 | 1000 to 10000 | 1000 to 10000
Cc1cn2cc(-c3ccc4nc(N5CCC(NC(C)(C)C)C5)ccc4n3)nc(C)c2n1 (stereo not shown) [Compound 206] | 1000 to 10000 | C (C represents 1000-9999 nM) | 1000 to 10000 | 1000 to 10000 | 1000 to 10000 | 1000 to 10000 | 1000 to 10000 | 1000 to 10000 | 1000 to 10000 | 1000 to 10000 | 1000 to 10000
Cn1cc2nc(-c3ccc4nc(N5CCC(NC(C)(C)C)C5)ccc4n3)c(F)cc2n1 (stereo not shown) [Compound 207] | 1000 to 10000 | C (C represents 1000-9999 nM) | 1000 to 10000 | 1000 to 10000 | 1000 to 10000 | 1000 to 10000 | 1000 to 10000 | 1000 to 10000 | 1000 to 10000 | 1000 to 10000 | 1000 to 10000
Cc1nc(-c2ccc3nc(N4CCC(NC(C)(C)C)C4)ccc3n2)cc2cn(C)nc12 (stereo not shown) [Compound 208] | > 10000 | D (D represents greater than 10 μM in K562 cells) | > 10000 | > 10000 | > 10000 | > 10000 | 1000 to 10000 | > 10000 | > 10000 | 1000 to 10000 | 1000 to 10000
Cc1nc2cc(O)c(-c3ccc4nc(N5CC[C@H](NC(C)(C)C)C5)ccc4n3)cc2o1 [Compound 209] | 1000 to 10000 | C (C represents 1000-9999 nM) | < 100 | < 100 | < 100 | < 100 | < 100 | < 100 | < 100 | < 100 | < 100
Cc1nc2cc(O)c(-c3ccc4nc(N5CC[C@@H](NC(C)(C)C)C5)ccc4n3)cc2o1 [Compound 210] | < 100 | A (A represents <100 nM) | < 100 | 1000 to 10000 | 100 to 1000 | 100 to 1000 | 1000 to 10000 | 1000 to 10000 | 1000 to 10000 | < 100 | < 100
Cc1nc2cc(O)c(-c3ccc4nc(N5CC[C@H](NC6CC6)C5)ccc4n3)cc2o1 [Compound 211] | < 100 | B (B represents 100-1000 nM) | < 100 | < 100 | < 100 | < 100 | < 100 | < 100 | < 100 | < 100 | < 100
